Measurements reported in BindingDB's records for doi:10.7270/Q24T6GTZ (Burnham Center For Chemical Genomics, 2010).

Biological target: Kappa-type opioid receptor (Homo sapiens, UniProt P41145)
Experiment: KOR agonist analogs, imaging readout, SAR follow-up, image-based (AID 2359)

Kappa-type opioid receptor, sequence (P41145 whole entry): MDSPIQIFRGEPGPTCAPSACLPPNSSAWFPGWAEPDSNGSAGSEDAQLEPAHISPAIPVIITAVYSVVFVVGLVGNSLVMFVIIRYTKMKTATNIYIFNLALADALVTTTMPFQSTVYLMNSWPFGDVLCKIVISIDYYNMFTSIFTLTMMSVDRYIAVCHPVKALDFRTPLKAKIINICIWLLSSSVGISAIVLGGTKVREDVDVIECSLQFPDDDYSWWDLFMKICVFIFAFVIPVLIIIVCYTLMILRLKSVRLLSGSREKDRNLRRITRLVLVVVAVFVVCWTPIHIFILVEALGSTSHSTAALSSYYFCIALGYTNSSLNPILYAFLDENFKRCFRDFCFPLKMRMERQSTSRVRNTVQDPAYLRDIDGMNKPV

With `CCC(N=Nc1ccnc2cc(Cl)ccc12)c1ccc(O)cc1` (configuration not stated) [4-[1-[2-(7-chloroquinolin-4-yl)hydrazinyl]propylidene]cyclohexa-2,5-dien-1-one] the EC50 was > 32 µM.

With `Oc1ccc(CN=Nc2ccnc3cc(Cl)ccc23)cc1O` [(4Z)-4-[[2-(7-chloroquinolin-4-yl)hydrazinyl]methylidene]-2-hydroxycyclohexa-2,5-dien-1-one] the EC50 was > 32 µM.
